# From patent US20240246964A1 (Arbutus Biopharma Corporation, priority 2021, published 2024)
# Experiments:
# [1] = molecular target: PD-L1 His protein / PD-1 Fc protein (Homo sapiens (Human), UniProt Q9NZQ7); test: HTRF Assay (PD-1/PD-L1 interaction); assay type: binding; conditions: PD-L1 His 6 nM, PD-1 Fc 6 nM
# human PD-L1 = human PD-L1 (Homo sapiens (Human), UniProt Q9NZQ7); test: T cell activation luciferase reporter cell culture system (T Cell Activation Assay); assay type: cell-based; conditions: luciferase reporter assay; PD-L1 aAPC/CHO-K1 cells with PD-1 effector Jurkat T cells
# Chain of human PD-L1 (Q9NZQ7 19-290): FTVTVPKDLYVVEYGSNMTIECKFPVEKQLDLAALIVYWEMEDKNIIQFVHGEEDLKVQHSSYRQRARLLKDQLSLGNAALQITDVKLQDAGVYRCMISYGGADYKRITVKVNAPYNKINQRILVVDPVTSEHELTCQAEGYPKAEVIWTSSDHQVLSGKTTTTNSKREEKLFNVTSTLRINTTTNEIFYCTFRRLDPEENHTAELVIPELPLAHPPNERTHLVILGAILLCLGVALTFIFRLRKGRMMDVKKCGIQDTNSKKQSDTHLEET
# Chain of PD-L1 His protein / PD-1 Fc protein (Q9NZQ7 19-238): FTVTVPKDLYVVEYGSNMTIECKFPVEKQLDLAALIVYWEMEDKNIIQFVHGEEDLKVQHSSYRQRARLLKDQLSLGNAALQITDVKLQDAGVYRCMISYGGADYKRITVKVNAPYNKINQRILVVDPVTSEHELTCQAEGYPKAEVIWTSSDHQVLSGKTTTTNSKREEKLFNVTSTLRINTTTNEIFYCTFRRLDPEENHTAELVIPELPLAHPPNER
SMILES,IC50 [1] [nM],EC50 (human PD-L1) [nM]
"COc1cc(-c2nccc(-c3cccc(-c4ccc(CNC[C@@H]5CCC(=O)N5)c(OC)n4)c3Cl)c2Cl)cc(F)c1CN1CC2(CC(O)C2)C1 [Compound 146, (S)-5-((((6-(2-chloro-3-(3-chloro-2-(3-fluoro-4-((6-hydroxy-2-azaspiro[3.3]heptan-2-yl)methyl)-5-methoxyphenyl)pyridin-4-yl)phenyl)-2-methoxypyridin-3-yl)methyl)amino)methyl)pyrrolidin-2-one]",0.77,61.1
"COc1cc(-c2nccc(-c3cccc(NC(=O)c4ccc(CNC5CC6(C5)CN(C(C)=O)C6)cn4)c3Cl)c2Cl)ccc1CNC1CC2(C1)CN(C(C)=O)C2 (stereo not drawn) [Example 706, 5-(((2-Acetyl-2-azaspiro[3.3]heptan-6-yl)amino)methyl)-N-(3-(2-(4-(((2-acetyl-2-azaspiro[3.3]heptan-6-yl)amino)methyl)-3-methoxyphenyl)-3-chloropyridin-4-yl)-2-chlorophenyl)picolinamide]",0.2,72.6
"COc1nc(-c2cccc(-c3ccnc(-c4ccc(CN5CC6(CNC(=O)C6)C5)c(OC(F)F)c4)c3Cl)c2Cl)ccc1CN1CC2(C1)CN(C(C)=O)C2 [Example 688, 2-(4-(4-(3-(5-((6-Acetyl-2,6-diazaspiro[3.3]heptan-2-yl)methyl)-6-methoxypyridin-2-yl)-2-chlorophenyl)-3-chloropyridin-2-yl)-2-(difluoromethoxy)benzyl)-2,6-diazaspiro[3.4]octan-7-one]",1.46,17
"COc1nc(-c2cccc(-c3ccnc(-c4cc5c(=O)n(C)c(CN6CC(C)(O)C6)nn5c4)c3Cl)c2Cl)ccc1CN1CC(C)(O)C1 [Example 231, 6-(3-Chloro-4-(2-chloro-3-(5-((3-hydroxy-3-methylazetidin-1-yl)methyl)-6-methoxypyridin-2-yl)phenyl)pyridin-2-yl)-2-((3-hydroxy-3-methylazetidin-1-yl)methyl)-3-methylpyrrolo[2,1-f][1,2,4]triazin-4(3H)-one]",3.53,105
"COc1cc(-c2nccc(-c3cccc(-c4ccc5c(CNC6CCOCC6)cn(C)c5n4)c3Cl)c2Cl)ccc1CN1CC2(C1)CN(C(C)=O)C2 [Compound 609, 1-(6-(4-(3-Chloro-4-(2-chloro-3-(1-methyl-3-(((tetrahydro-2H-pyran-4-yl)amino)methyl)-1H-pyrrolo[2,3-b]pyridin-6-yl)phenyl)pyridin-2-yl)-2-methoxybenzyl)-2,6-diazaspiro[3.3]heptan-2-yl)ethan-1-one]",0.22,10000
"COc1cc(-c2ncnc(-c3cccc(-c4ccc(CNC5CCN(C(C)=O)CC5)c(OC)n4)c3Cl)c2Cl)ccc1CNC1CCN(C(C)=O)CC1 [Example 540, 1-(4-(((6-(3-(6-(4-(((1-Acetylpiperidin-4-yl)amino)methyl)-3-methoxyphenyl)-5-chloropyrimidin-4-yl)-2-chlorophenyl)-2-methoxypyridin-3-yl)methyl)amino)piperidin-1-yl)ethan-1-one]",0.5,86.6
"CNCc1ccc(-c2ccnc(-c3cccc4c3CC[C@@H]4Nc3nc(OC)c(CNC)cc3C(F)(F)F)c2Cl)nc1OC [Compound 224, (S)-N-(4-(3′-chloro-6-methoxy-5-((methylamino)methyl)-[2,4′-bipyridin]-2′-yl)-2,3-dihydro-1H-inden-1-yl)-6-methoxy-5-((methylamino)methyl)-3-(trifluoromethyl)pyridin-2-amine]",8.22,≥ 10000
"COc1cc(-c2nccc(-c3cccc(-c4ccc(CN5CC6(CNC(=O)C6)C5)c(OC)n4)c3Cl)c2Cl)cc2c1CN(CC(O)CF)CC2 (stereo not drawn) [Example 296, 2-((6-(2-Chloro-3-(3-chloro-2-(2-(3-fluoro-2-hydroxypropyl)-8-methoxy-1,2,3,4-tetrahydroisoquinolin-6-yl)pyridin-4-yl)phenyl)-2-methoxypyridin-3-yl)methyl)-2,6-diazaspiro[3.4]octan-7-one]",3.3,49.8
"COc1cc(-c2nccc(-c3cccc(-c4ccc5c(CNC6CCOCC6)cn(C)c5n4)c3Cl)c2Cl)ccc1CNC1CCOCC1 [Compound 563, N-((6-(2-Chloro-3-(3-chloro-2-(3-methoxy-4-(((tetrahydro-2H-pyran-4-yl)amino)methyl)phenyl)pyridin-4-yl)phenyl)-1-methyl-1H-pyrrolo[2,3-b]pyridin-3-yl)methyl)tetrahydro-2H-pyran-4-amine]",4.07,956
"COc1cc(-c2nccc(-c3cccc(-c4ccc(CNC5CCN(C(C)=O)CC5)c(OC)n4)c3F)c2Cl)ccc1CNC1CCN(C(C)=O)CC1 [Example 439, 1-(4-(((6-(3-(2-(4-(((1-Acetylpiperidin-4-yl)amino)methyl)-3-methoxyphenyl)-3-chloropyridin-4-yl)-2-fluorophenyl)-2-methoxypyridin-3-yl)methyl)amino)piperidin-1-yl)ethan-1-one]",2.74,121
"CNCc1ccc(-c2cccc(-c3ccnc(-c4ccc(CN5CC6(CC(C(=O)OC(C)C)C6)C5)c(OC)c4)c3Cl)c2Cl)nc1OC [Example 281, Isopropyl 2-(4-(3-chloro-4-(2-chloro-3-(6-methoxy-5-((methylamino)methyl)pyridin-2-yl)phenyl)pyridin-2-yl)-2-methoxybenzyl)-2-azaspiro[3.3]heptane-6-carboxylate]",10.9,153
"COc1cc(-c2nccc(-c3cccc(-c4ccc5c(CN(C)C6CCN(C(C)=O)CC6)cn(C)c5n4)c3Cl)c2Cl)ccc1CNC1CCOCC1 [Compound 600, 1-(4-(((6-(2-Chloro-3-(3-chloro-2-(3-methoxy-4-(((tetrahydro-2H-pyran-4-yl)amino)methyl)phenyl)pyridin-4-yl)phenyl)-1-methyl-1H-pyrrolo[2,3-b]pyridin-3-yl)methyl)(methyl)amino)piperidin-1-yl)ethan-1-one]",0.25,32.6
"COc1nc(-c2cccc(-c3ccnc(-c4ccc5c(c4)N(C)CCN(C[C@H](C)O)C5)c3Cl)c2Cl)ccc1CNC[C@@H]1CCC(=O)N1 [Compound 24, (S)-5-((((6-(2-chloro-3-(3-chloro-2-(4-((S)-2-hydroxypropyl)-1-methyl-2,3,4,5-tetrahydro-1H-benzo[e][1,4]diazepin-8-yl)pyridin-4-yl)phenyl)-2-methoxypyridin-3-yl)methyl)amino)methyl)pyrrolidin-2-one]",0.8,87.2
"COc1cc(-c2nccc(-c3cccc(-c4ccc(CNC5CCOCC5)c(OC)n4)c3Cl)c2Cl)cnc1CNC1CCOCC1 [Compound 431, N-((6-(2-Chloro-3-(3-chloro-5′-methoxy-6′-(((tetrahydro-2H-pyran-4-yl)amino)methyl)-[2,3′-bipyridin]-4-yl)phenyl)-2-methoxypyridin-3-yl)methyl)tetrahydro-2H-pyran-4-amine]",2.03,106
"COc1cc(-c2nccc(-c3ccnc(-c4cc(F)c(CNC[C@@H]5CCC(=O)N5)c(OC)c4)c3Cl)c2Cl)cc(F)c1CNC[C@@H]1CCC(=O)N1 [Compound 12, (5S,5′S)-5,5′-(((((3,3′-dichloro-[4,4′-bipyridine]-2,2′-diyl)bis(2-fluoro-6-methoxy-4,1-phenylene))bis(methylene))bis(azanediyl))bis(methylene))bis(pyrrolidin-2-one)]",0.1,67.1
